Format in all cases: functional
For assay [1], the species on record is Rattus norvegicus. As to the kind of experiment: Inhibition of kainic acid (KA)-induced currents in rat brain mRNA-injected xenopus oocytes.
The species entered for assay [2] is Rattus norvegicus. As to the kind of experiment: The compound was tested for its ability to inhibit AMPA-induced currents in rat brain mRNA-injected xenopus oocytes.
The test system of assay [3] is Mus musculus. As to the kind of experiment: Compound was tested for its ability to inhibit pentylenetetrazole-induced seizures in male CF-1 mice by i.c.v. administration.
The test system of assay [4] is Mus musculus. As to the kind of experiment: Compound was tested for its ability to inhibit pentylenetetrazole-induced seizures in male CF-1 mice by i.p. administration. The settings on record: ip.
The species entered for assay [5] is Rattus norvegicus. As to the kind of experiment: Compound was tested against kainic acid-induced neuronal damage in rat striatum, as assessed by preventing reduction in glutamate decarboxylase GAD activity. On the set-up: scale not given: the % may be the effect or the level left.
For assay [6], the species on record is Rattus norvegicus. As to the kind of experiment: Compound was tested against kainic acid-induced neuronal damage in rat striatum, as assessed by preventing reduction in choline acetyltransferase (ChAT) activity. Details: scale not given: the % may be the effect or the level left.

Molecules are shown by their SMILES. A value given as a limit tells only on which side of the number the result lay.

Usually Ki stands for the dissociation constant of the complex between target and ligand, obtained from inhibition or displacement. For `NC(Cc1cc(Cl)ccc1CCP(=O)(O)O)C(=O)O` (stereo not given), the Ki in the assay listed under Rattus norvegicus [1] turned out to be 15 µM; in the assay listed under Rattus norvegicus [2] it was 48 µM.

For the molecule `NC(Cc1cc(C2CCCCC2)ccc1CCP(=O)(O)O)C(=O)O` (stereo not given), the Ki in the assay filed under Rattus norvegicus [1] was determined as 139 µM.

The molecule `O=C(O)C1CN(CCCP(=O)(O)O)CCN1` (stereo not given) had an ED50 in the assay on Mus musculus [3] of 0.15 nmol.

For `CC(C)(C)c1ccc(CCP(=O)(O)O)c(CC(N)C(=O)O)c1` (stereo not given), the Ki in the assay listed under Rattus norvegicus [1] worked out at 29 µM.

Take `Cc1cc(C)c(CCP(=O)(O)O)c(C[C@H](N)C(=O)O)c1`: the ED50 in the assay with Mus musculus [3] is 0.3 nmol; in the assay on Mus musculus [4] it was 111 mg/kg.

Take `Cc1ccc(CCP(=O)(O)O)c(CC(N)C(=O)O)c1` (stereo not given): the Ki in the assay listed under Rattus norvegicus [1] is 11 µM; in the assay listed under Rattus norvegicus [2] it was 13 µM.

Consider `CCc1ccc(CCP(=O)(O)O)c(CC(N)C(=O)O)c1` (stereo not given), for which the inhibition constant Ki came out at 17 µM in the assay listed under Rattus norvegicus [1] and 50 µM in the assay filed under Rattus norvegicus [2].

For the molecule `Cc1cccc(CCP(=O)(O)O)c1CC(N)C(=O)O` (stereo not given), the Ki in the assay filed under Rattus norvegicus [1] was above 100 µM.

In the assay filed under Rattus norvegicus [1], `Cc1cccc(CC(N)C(=O)O)c1CCP(=O)(O)O` (stereo not given) came in with a Ki above 100 µM.

In the case of `NC(Cc1cc(F)ccc1CCP(=O)(O)O)C(=O)O` (stereo not given), the Ki in the assay filed under Rattus norvegicus [1] turned out to be 68 µM; in the assay filed under Rattus norvegicus [2], 167 µM.

For `NC(Cc1cc(Br)ccc1CCP(=O)(O)O)C(=O)O` (stereo not given), the figures for the Ki in the assay listed under Rattus norvegicus [1] and in the assay listed under Rattus norvegicus [2] were 10 µM and 61 µM, respectively.

In the case of `C=C(C)[C@H]1CN[C@H](C(=O)O)[C@H]1CC(=O)O` [KAINIC ACID], the Activity is listed as 45% in the assay filed under Rattus norvegicus [5] and 32% in the assay listed under Rattus norvegicus [6].

In the assay listed under Rattus norvegicus [1], `COc1ccc(CCP(=O)(O)O)c(CC(N)C(=O)O)c1` (stereo not given) came in with a Ki of 67 µM.

In the assay listed under Rattus norvegicus [1], `Cc1ccc(CC(N)C(=O)O)c(CCP(=O)(O)O)c1` (stereo not given) had a Ki above 100 µM.

Molecule `NC(Cc1cccc(-c2ccccc2)c1CCP(=O)(O)O)C(=O)O` (stereo not given) showed a Ki in the assay listed under Rattus norvegicus [1] of 83 µM.

Consider `NC(Cc1cc(I)ccc1CCP(=O)(O)O)C(=O)O` (stereo not given), for which the Ki in the assay filed under Rattus norvegicus [1] was determined as 3.6 µM; in the assay filed under Rattus norvegicus [2] it was 16 µM.

`NC(Cc1cc(C(F)(F)F)ccc1CCP(=O)(O)O)C(=O)O` (stereo not given) displayed a Ki in the assay listed under Rattus norvegicus [1] of 10 µM.

On to `Cc1ccc(CCP(=O)(O)O)c(C[C@H](N)C(=O)O)c1`, for which the ED50 in the assay on Mus musculus [3] came out at 0.58 nmol; in the assay with Mus musculus [4], 124 mg/kg.

For the molecule `NC(Cc1cc(-c2ccccc2)ccc1CCP(=O)(O)O)C(=O)O` (stereo not given), in the assay filed under Rattus norvegicus [1], the Ki amounted to 76 µM.

For `Cc1cc(C)c(CCP(=O)(O)O)c(CC(N)C(=O)O)c1` (stereo not given), the Ki was 12 µM in the assay listed under Rattus norvegicus [1] and 39 µM in the assay filed under Rattus norvegicus [2].

Source of the values: ChEMBL document CHEMBL1126350, “Phosphonoethylphenylalanine derivatives as novel antagonists of non-NMDA ionotropic glutamate receptors” (Bioorg Med Chem Lett, 1992).
